According to patent US20130053392A1, “CARBONIC ANHYDRASE INHIBITORS” (priority 2010, published 2013):
“Also recorded” adds a separate entry of the source.

Experiments:
[1] = prior art compound (Winum et al); cited from earlier work
MDA-231 GFP cells = test: Cell migration (scratch wound) assay, MDA-231; assay type: cell-based; details: 33 μM preliminary screen, 24 h, MDA231, FIG. 7/8
Procedure: A cell migration assay was performed as follows. A coverslip was placed in a 3 cm dish and 0.5×10^6 cells (in 10% FCS-RPMI) was seeded, per 3 cm dish. The cells were left to grow for 24 hours so as to obtain a confluent layer of cells on the coverslip and a scratch was made with a pipette tip (p200) and loosely attached cells were washed off. The medium was replaced with a low serum (0.2% serum) medium to reduce the level of proliferation.
Cells were fixed in buffered formalin and scratches were imaged with ImageJ and the extent of wound closure was calculated.
A series of 11 compounds were assayed in scratch wound assays to evaluate the effect of CA-IX inhibition on cellular migration in air and hypoxia. […] Cells were then cultured in air or hypoxia and migration analysed 24 h later relative to vehicle treated controls.

[2] = Proliferation/viability assays; assay type: cell-based; details: 33 μM
Procedure: CA IX inhibition, either using a genetic approach (knock down) or pharmacological (S4) results in a sensitization to irradiation. Genetically or pharmacologically, this sensitization occurs to a similar extent. Pharmacological testing was performed at 33 μM, a concentration selected based on no-toxicity under normoxic conditions based on proliferation/viability assays.

[3] = test system: EV/2 CA IX expressing cells (HT-29); test: Clonogenic survival after irradiation, EV/2 cells; assay type: cell-based, human; details: S4 33 μM 23 h
Procedure: (§1) Cells were incubated with S4 1 h after the start of the anoxic/normoxic exposure, during 23 h. […] After incubation, cells were irradiated on ice (MCN 225 industrial X-ray tube (Philips, Eindhoven, NL) at 225 kV and 10 mA under the respective oxygen concentrations using different doses (Normoxia: 0, 2, 4, 6, and 8 Gy; Anoxia: 0, 4, 8, 12 and 16 Gy). After irradiation, cells were washed, trypsinized and plated for the clonogenic survival assay and incubated under standard culture conditions until colonies were formed (14 days). Colonies were fixed and stained with 4% methylene blue in 70% ethanol. Plating efficiency was determined by counting colonies consisting of >50 cells and correcting for the number of cells seeded.

[4] = test system: 94/1 CA IX knock down cells (HT-29); test: Clonogenic survival after irradiation, 94/1 cells; assay type: cell-based, human
Procedure: as §1

[5] = test system: HT29 colon carcinoma cells; test: Mouse xenograft model, HT29 colon carcinoma; assay type: in vivo, mice
FaDU head and neck cells = test: FaDU spheroid clonogenicity assay with doxorubicin or radiation; assay type: cell-based; details: listed as S4
Procedure: These studies were undertaken using tumour cells grown into 3-D spheroid cultures that have a natural oxygen gradient. Spheroids of FaDU head and neck cells were generated and treated for 24 h with S4 or vehicle alone; doxorubicin alone or in combination with S4; and S4 or vehicle plus 10 Gy radiotherapy given at the end of the 24 h exposure. Spheroids were treated with trypsin to generate single cell suspensions and plated at various dilutions. Clonogenecity was then recorded per spheroid.
Spheroids were generated by the “liquid overlay technique”. […] The coating prevents the cells from forming monolayers and gives rise of spheroid growth.
The spheroids were grown in a CO2-incubator for 5-7 days. Thereafter, the spheroids were collected and grown in a spinner flask for an additional 5-7 days until they reached a diameter of ˜500-750 μm (10%-0.1% O2 gradient in spheroid).
Spheroids were pooled for the following treatments: • 1. Vehicle for 24 hours • 2. […] Doxorubicin (10 μM) for 24 h • 4. Vehicle for 24 hours followed by 10 Gy radiotherapy • 5.
Directly thereafter, spheroids were digested to single cells using trypsin/EDTA and the cells seeded at a range of concentration in culture plates (clonogenicity assay).
After about a week the cells were stained with methylene blue and the number of colonies counted.

MDA231-EGFP cells = test: Orthotopic MDA231-EGFP mammary fat pad tumour and lung clonogen (metastasis) model; assay type: in vivo, mice; details: 10 mg/kg, 5 days on, 2 days off
Procedure: 16 mice were implanted with 0.1 ml of a 5×10^7/ml suspension of MDA231-EGFP cells into the mammary fat pad of anaesthetized mice. The cells were prepared in a 1:1 mix of Matrigel: serum-free RMPI.
Mouse condition was monitored daily and tumour volumes recorded at least 3× per week.
Once tumours reached approximately 100 mm^3, they were randomised in to the following treatment groups:
Group 1: 8 mice implanted with MDA231-EGFP cells received vehicle administered in a “5 days on, 2 days” off schedule (ie Mon-Fri dosing each week).
Group 2: 8 mice implanted with MDA231-EGFP cells received CA-IX inhibitor S4 administered at 10 mg/kg dose in a “5 days on, 2 days” off schedule (ie Mon-Fri dosing each week).
Treatment was continued until primary tumours reached a designated endpoint volume of approx 1000 mm^3.
Mouse health and condition was monitored throughout and weights recorded up to 3 times per week.
Before sacrifice Pimonidazole at 0.2 ml of 10 mg/ml solution i/p (2 h before) and 0.1 ml of a 6 mg/ml Hoechst solution (iv) (1 minute before) were administered. Tumour and lungs were rapidly removed for processing.
Clonogens were assessed in lungs using a clonogenic assay. About a quarter of the total lung tissue was taken and weighed. […] Clones were then stained with bromophenol blue and counted, calculating the number per mg of tissue following correction for the dilution.

[6] = test system: 94/1 CA IX knock down cells (HT-29); test: FC11-489A bis binding, fluorescence staining, 94/1 cells; assay type: cell-based, human; details: 100 μM, normoxia, hypoxia, reoxygenation, listed as FC11-489A bis
Procedure: (§2) Cells were mounted onto slides with Fluorescence Mounting Medium (DAKO) and analyzed with a Zeiss Axioskop fluorescence microscope using FIT-C filter settings.
(§3) Each staining picture was loaded into Image) analysis software (Image J 1.38x NIH USA, http://rsb.info.nih.gov/ij/Java 1.5.0—17), converted to 8-bit images, thresholded to exclude areas without cells and all remaining pixels were analyzed for their intensity.
(§4) For each oxygen condition, for at least 350 pixels fluorescence intensity was analyzed.

[7] = test system: EV/2 CA IX expressing cells (HT-29); test: FC11-489A bis binding, fluorescence staining, EV/2 cells; assay type: cell-based, human; details: 100 μM
Procedure: as §2, §3, §4

[8] = test system: EV/2 CA IX expressing cells (HT-29); test: FC11-489A bis binding, flow cytometer, EV/2 cells; details: 100 μM, FACS
Procedure: (§6) Single suspensions were obtained by passing cells through 70 μm nylon cell strainers (BD Biosciences). Mean fluorescence intensity was analyzed using a FACSort flow cytometer (BD Biosciences) using FIT-C filter settings.

[9] = test system: 94/1 CA IX knock down cells (HT-29); test: FC11-489A bis binding, plate reader, 94/1 cells; assay type: cell-based, human; details: 100 μM, normoxia, hypoxia, reoxygenation
Source text: (§5) Plates were placed in a BMG microplate reader FLUOstare Omega using following protocol: Fluorescence intensity—Well scanning using 5×5 scan matrix in a diameter of 10 mm with 10 flashes per scan point, a gain of 1000 and 355 nm-460 nm filter settings.

[10] = test system: EV/2 CA IX expressing cells (HT-29); test: FC11-489A bis binding, plate reader, EV/2 cells; assay type: cell-based, human; details: 100 μM
Source text: as §5

hCA IX = biological target: T1, hCA IX (Homo sapiens, UniProt Q16790); test: CA-catalysed CO2 hydration stopped-flow inhibition assay, hCA IX; assay type: biochemical; details: Table 3, stopped flow assay
T1 construct: made in house
Procedure: Typically, CA inhibition is measured by assaying for CA-catalysed CO2 hydration activity using an appropriate indicator dye. […] Stopped flow spectrophotometry may used to measure the rate of hydration activity.
The uncatalyzed rates were determined in the same manner and subtracted from the total observed rates. Stock solutions of inhibitor (0.1 mM) were prepared in distilled-deionized water and dilutions up to 0.01 nM were done thereafter with distilled-deionized water Inhibitor and enzyme solutions were preincubated together for 15 min at room temperature in order to allow for the formation of the E-I complex. The inhibition constants were obtained by non-linear least-squares methods using PRISM 3, as reported earlier,^1,2,3 and represent the mean from at least three different determinations. All enzymes were recombinant ones, obtained as reported earlier.^2,3 • 1. Khalifah, R. G. The carbon dioxide hydration activity of carbonic anhydrase. I. Stop-flow kinetic studies on the native human isoenzymes B and C. […] Alterio, V.; Hilvo, M.; Di Fiore, A.; Supuran, C. T.; Pan, P.; Parkkila, S.; Scaloni, A.; Pastorek, J.; Pastorekova, S.; Pedone, C.; Scozzafava, A.; Monti, S. M.; De Simone, G. Crystal structure of the extracellular catalytic domain of the tumor-associated human carbonic anhydrase IX. […] T. Carbonic anhydrase inhibitors: X-ray and molecular modeling study for the interaction of a fluorescent antitumor sulfonamide with isozyme II and IX. J. Am. Chem. Soc. […] J. Am. Chem. Soc.

[11] = test system: 94/1 CA IX knock down cells (HT-29); test: FC11-489A bis binding, flow cytometer, 94/1 cells; details: 100 μM, normoxia, hypoxia, reoxygenation, FACS
Procedure: as §6

Question: Which stability in solution [1] does the source give for NS(=O)(=O)Oc1ccc(Cl)cc1 [4-chlorophenyl sulphamate] here?
Answer: Its stability in solution is “relatively unstable in solution”.

Question: For NS(=O)(=O)Oc1ccc(NC(=O)Nc2ccc(Oc3ccccc3)cc2)cc1 [Compound 3h, 4-[(4-phenoxyphenyl)ureido]phenyl sulfamate], which “cellular migration in air and hypoxia relative to vehicle” value (MDA-231 GFP cells) is on record?
Answer: Its value is “inhibitory effects against hypoxic cell migration at concentrations that had minimal effects in air”.

Question: Which “cellular migration in air and hypoxia relative to vehicle” value (MDA-231 GFP cells) does the source give for NS(=O)(=O)Oc1ccc(NC(=O)Nc2c(F)c(F)c(F)c(F)c2F)cc1 [Compound 3i, 4-[(pentafluorophenyl)ureido]phenyl sulfamate] here?
Answer: The value was “inhibitory effects against hypoxic cell migration at concentrations that had minimal effects in air”.

Question: For Cc1cc(C)cc(NC(=O)Nc2ccc(OS(N)(=O)=O)cc2)c1 [Compound 3p, 4-[(3,5-dimethylphenyl)ureido]phenyl sulfamate], which “toxicity under normoxic conditions” value [2] is on record?
Answer: Its value is “no-toxicity”.

Question: What about the “sensitization to irradiation, 24 h anoxia” value ([3]; anoxia, 8, 12 and 16 Gy, FIG. 18) of the same molecule?
Answer: The value was “a sensitization to irradiation was observed”.

Question: And the “sensitization to irradiation, normoxic exposure” value ([3]; normoxia, 0-8 Gy)?
Answer: Its value is “no sensitization to irradiation was demonstrated”.

Question: And the “sensitization to irradiation, normoxic exposure” value ([4]; S4 33 μM 23 h, normoxia)?
Answer: The value was “no sensitization to irradiation was demonstrated”.

Question: And the “effect on radiosensitivity of knock down cells” value ([4]; S4 33 μM pretreatment)?
Answer: The value was “had no effect on the radiosensitivity”.

Question: What about the “volume of the tumour versus control” value ([5]; HT29 xenograft, FIG. 3) of the same molecule?
Answer: Its value is “significant reduction in the volume of the tumour”.

Question: What about the “reduction of the tumor growth” value ([5]; highest dosage of CA inhibitor, HT29 xenograft in nude CD1 mice) of the same molecule?
Answer: The value was 30%.

Question: And the “clonogenic survival, combination with radiation” value (FaDU head and neck cells; S4 33 μM 24 h plus 10 Gy radiotherapy)?
Answer: The value was “reduced colongenic survival compared with either agent alone; also recorded: significant reduction in colony formation per spheroid”.

Question: What about the “clonogenic survival, combination with doxorubicin” value (FaDU head and neck cells; S4 33 μM plus doxorubicin 10 μM, 24 h) of the same molecule?
Answer: The value was “reduced colongenic survival compared with either agent alone; also recorded: significant reduction in colony formation per spheroid”.

Question: And the “clonogenicity per spheroid, inhibitor alone” value (FaDU head and neck cells; S4 alone (33 μM), 24 h, FIG. 9)?
Answer: The value was “little effect on growth of cells isolated from the spheroids; also recorded: little effect on cell growth”.

Question: And the “number of metastatic MDA-231 clonogens (colonies per gram of lung tissue) versus vehicle” value (MDA231-EGFP cells; FIG. 5)?
Answer: The value was “significantly fewer metastatic clonogens”.

Question: And the “tumour volume against time versus vehicle” value (MDA231-EGFP cells; orthotopic MDA-231 tumours, FIG. 4)?
Answer: The value was “little or no effect on the growth of the orthotopic MDA-231 tumours”.

Question: Which “binding at CA IX knock down cells” value [6] does the source give for NS(=O)(=O)Oc1ccc(NC(=S)Nc2ccc(-c3c4ccc(=O)cc-4oc4cc(O)ccc34)c(C(=O)O)c2)cc1 [Compound 20, 2-(3-Hydroxy-6-oxo-6H-xanthen-9-yl)-5-(3-(4-(sulfamoyloxy)phenyl)thioureido)benzoic acid] here?
Answer: Its value is “lower for all experimental conditions compared to the EV/2 cells; also recorded: No significant binding”.

Question: What about the binding upon reoxygenation ([7]; 24 h hypoxia then 1 h air, listed as FC11-489A bis) of the same molecule?
Answer: The binding upon reoxygenation was “reduced upon reoxygenation to levels similar as normoxia exposure; also recorded: dramatically reduced”.

Question: What about the “binding (immunofluorescence), hypoxia versus normoxia” value ([7]; hypoxia 0.2% 24 h, FIG. 14/15, listed as FC11-489A bis) of the same molecule?
Answer: The value was “significant higher binding”.

Question: What about the “binding upon reoxygenation versus hypoxic conditions” value ([8]; 24 h hypoxia then 1 h air) of the same molecule?
Answer: Its value is “dramatically reduced”.

Question: What about the “binding (mean fluorescence intensity), hypoxia versus normoxia” value ([8]; hypoxia 0.2% 24 h, FIG. 13) of the same molecule?
Answer: The value was “significant higher binding”.

Question: What about the “binding at CA IX knock down cells” value [9] of the same molecule?
Answer: The value was “No significant binding”.

Question: What about the “binding upon reoxygenation versus hypoxic conditions” value ([10]; 24 h hypoxia then 1 h air) of the same molecule?
Answer: The value was “dramatically reduced”.

Question: And the “binding (fluorescence intensity), hypoxia versus normoxia” value ([10]; hypoxia 0.2% 24 h, FIG. 12)?
Answer: The value was “significant higher binding”.

Question: What about the Ki (hCA IX) of the same molecule?
Answer: Its Ki is 14 nM.

Question: What about the “binding at CA IX knock down cells” value [11] of the same molecule?
Answer: The value was “No significant binding”.
